Measurements taken from patent publication US4464467A, “Antitumor antibiotics produced by new streptomyces” (Bristol-Myers Company, priority 1982, dated 1984).

What was measured:
lymphatic leukemia P388 = assay: Antitumor activity against leukemia P388, second experiment (Table 10); assay type: in vivo, male BDF1 mice; details: for Survivors Day 5 / Survivors Day 22 / Average weight change / MST % T/C: QD 1→9; for antitumor activity against leukemia P388 (in words): second experiment, ip, once daily for 9 days, comparative
Experimental: In this experiment lymphatic leukemia P388 was implanted intraperitoneally into male BDF1 mice at an inoculum size of 10^6 cells per mouse. Test compounds were dissolved in 0.9% saline containing 10% dimethylsulfoxide. Graded doses of test compounds were administered to mice intraperitoneally 24 hours after the tumor implantation, and the treatment was continued once daily for 9 days.
Tumor inoculum: 10^6 ascites cells implanted
Treatment: QD 1→9, i.p.
Evaluation: MST = median survival
Effect: % T/C = (MST treated/MST control) ×
Criteria: % T/C ≥125 considered as significant antitumor activity

P388 mouse leukemia = P388 mouse leukemia test (comparison of 2-hydroxy isomers); assay type: in vivo; details: β-hydroxy versus α-hydroxy isomers
Source text: The diastereoisomers of BBM-2040A and B of the present invention have been disclosed in Symposium Papers of the 24th Symposium on the Chemistry of Natural Products (Osaka, Japan, Oct. 13-16, 1981): Paper #72, pp. 552-559. Compounds 31b and 32b in this paper have the structures [drawing 2] and may be differentiated from BBM-2040A and B of the present invention in the configuration of the C-2 hydroxy group, i.e. BBM-2040A and B have the C-2 hydroxy group in the α-configuration while the corresponding 31b and 32b diastereoisomers have the β-configuration at the C-2 hydroxy group.

[1] = Acute toxicity, single intraperitoneal administration; parameters: species or system mice (ddY strain); details: mouse, in vivo, ip, ddY mice
Experimental: The intraperitoneal LD50 of neothramycin has been reported to be 20-30 mg/kg.

[2] = system: Streptococcus pyogenes, Micrococcus luteus, Micrococcus flavus and Mycobacterium strains; assay: Antibacterial activity, agar dilution; assay type: cell-based; details: against Streptococcus pyogenes
Experimental: The minimum inhibitory concentration (MIC) of BBM-2040 was determined for a variety of gram-positive, gram-negative and acid-fast bacteria by the serial two-fold agar dilution method. Nutrient agar medium was used for gram-positive and gram-negative organisms and No. 1001 medium (3% glycerol, 0.3% sodium L-glutamate, 0.2% peptone, 0.31% Na2 HPO4, 0.1% KH2 PO4, 0.005% ammonium citrate, 0.001% MgSO4 and 1.5% agar) for acid-fast organisms.

[3] = system: lymphocytic leukemia P388; assay: Antitumor activity against leukemia P388 in mice (Table 9); assay type: in vivo, mice (BDF1 strain); details: first experiment; ip, qd 1→9; comparative
Experimental: The antitumor activity of BBM-2040A and B was determined in mice (BDF1 strain) against lymphocytic leukemia P388. Each mouse was inoculated intraperitoneally with 10^6 cells of tumor. Graded doses of test compounds were administered to mice intraperitoneally 24 hours after the tumor implantation. The treatments were given once daily for 9 days (qd 1→9 schedule). Neothramycin was comparatively tested as a reference compound.
*ratio of median survival time of test and control animals

[4] = in benzene, chloroform and n-hexane
[5] = in ethyl acetate, acetone and water
[6] = in methanol, ethanol, n-butanol and pyridine

Compound: COc1cc2c(cc1O)N[C@H](OC)[C@@H]1C[C@@H](O)CN1C2=O [2β-Hydroxy epimer of BBM-2040 A]
- Survivors Day 5 (lymphatic leukemia P388; 0.03 mg/kg/day ip): 6/6
- Survivors Day 22 (lymphatic leukemia P388; 0.03 mg/kg/day ip): 0/6
- Survivors Day 5 (lymphatic leukemia P388; 0.1 mg/kg/day ip): 6/6
- Survivors Day 22 (lymphatic leukemia P388; 0.1 mg/kg/day ip): 0/6
- Survivors Day 5 (lymphatic leukemia P388; 0.3 mg/kg/day ip): 6/6
- Survivors Day 22 (lymphatic leukemia P388; 0.3 mg/kg/day ip): 0/6
- Survivors Day 5 (lymphatic leukemia P388; 1 mg/kg/day ip): 6/6
- Survivors Day 22 (lymphatic leukemia P388; 1 mg/kg/day ip): 0/6

Compound: COc1cc2c(cc1O)N[C@H](OC)[C@@H]1C[C@@H](O)CN1C2=O [31b, reference compound]
- antitumor activity in the P388 mouse leukemia test (in words) (P388 mouse leukemia): essentially devoid of antitumor activity

Compound: COc1cc2c(cc1O)N=C[C@@H]1C[C@@H](O)CN1C2=O [32b, reference compound]
- antitumor activity in the P388 mouse leukemia test (in words) (P388 mouse leukemia): essentially devoid of antitumor activity

Compound: COc1cc2c(cc1O)N[C@H](OC)[C@@H]1C[C@H](O)CN1C2=O [BBM-2040A, (2S, 11aS)-5,10,11,11a-tetrahydro-2,8-dihydroxy-7,11-dimethoxy-5-oxo-1H-pyrrolo(2,1-c) (1,4)benzodiazepine]
- LD50 [1]: 34 mg/kg
- antibacterial activity (in words) [2]: weak antibacterial activity
- solubility (Solubility; [4]): practically insoluble
- solubility (Solubility; [5]): slightly soluble
- solubility (Solubility; [6]): readily soluble
- antitumor activity in the P388 mouse leukemia test (in words) (P388 mouse leukemia): marked activity
- Average weight change (lymphatic leukemia P388; 0.1 mg/kg/day ip): +1.5 g
- MST % T/C (lymphatic leukemia P388; 0.1 mg/kg/day ip): 100%
- Survivors Day 5 (lymphatic leukemia P388; 0.1 mg/kg/day ip): 6/6
- Survivors Day 22 (lymphatic leukemia P388; 0.1 mg/kg/day ip): 0/6
- Average weight change (lymphatic leukemia P388; 0.3 mg/kg/day ip): +1.3 g
- MST % T/C (lymphatic leukemia P388; 0.3 mg/kg/day ip): 117%
- Survivors Day 5 (lymphatic leukemia P388; 0.3 mg/kg/day ip): 6/6
- Survivors Day 22 (lymphatic leukemia P388; 0.3 mg/kg/day ip): 0/6
- MST % T/C (lymphatic leukemia P388; 1 mg/kg/day ip): 133%
- Survivors Day 5 (lymphatic leukemia P388; 1 mg/kg/day ip): 6/6
- Survivors Day 22 (lymphatic leukemia P388; 1 mg/kg/day ip): 0/6
- MST % T/C (lymphatic leukemia P388; 3 mg/kg/day ip): 142%
- Survivors Day 5 (lymphatic leukemia P388; 3 mg/kg/day ip): 6/6
- Survivors Day 22 (lymphatic leukemia P388; 3 mg/kg/day ip): 0/6
- MST % T/C (lymphatic leukemia P388; 10 mg/kg/day ip): 163%
- Survivors Day 5 (lymphatic leukemia P388; 10 mg/kg/day ip): 6/6
- Survivors Day 22 (lymphatic leukemia P388; 10 mg/kg/day ip): 1/6
- antitumor activity against leukemia P388 (in words) (lymphatic leukemia P388): similarly active
- antitumor activity against leukemia P388 (in words) [3]: similarly active

Compound: COc1cc2c(cc1O)N=C[C@@H]1C[C@H](O)CN1C2=O [BBM-2040B]
- LD50 [1]: 57 mg/kg
- antibacterial activity (in words) [2]: weak antibacterial activity
- solubility (Solubility; [4]): practically insoluble
- solubility (Solubility; [5]): slightly soluble
- solubility (Solubility; [6]): readily soluble
- stability in solutions (Stability in solutions): relatively unstable
- antitumor activity in the P388 mouse leukemia test (in words) (P388 mouse leukemia): marked activity
- antitumor activity against leukemia P388 (in words) [3]: somewhat less active than BBM-2040A

Compound: COc1cc2c(cc1O)N=CC1CCC(O)N1C2=O (stereo not drawn) [Neothramycin]
- MST % T/C (lymphatic leukemia P388; 0.1 mg/kg/day ip): 108%
- Survivors Day 5 (lymphatic leukemia P388; 0.1 mg/kg/day ip): 6/6
- Survivors Day 22 (lymphatic leukemia P388; 0.1 mg/kg/day ip): 0/6
- MST % T/C (lymphatic leukemia P388; 0.3 mg/kg/day ip): 121%
- Survivors Day 5 (lymphatic leukemia P388; 0.3 mg/kg/day ip): 6/6
- Survivors Day 22 (lymphatic leukemia P388; 0.3 mg/kg/day ip): 0/6
- MST % T/C (lymphatic leukemia P388; 1 mg/kg/day ip): 142%
- Survivors Day 5 (lymphatic leukemia P388; 1 mg/kg/day ip): 6/6
- Survivors Day 22 (lymphatic leukemia P388; 1 mg/kg/day ip): 0/6
- MST % T/C (lymphatic leukemia P388; 3 mg/kg/day ip): 146%
- Survivors Day 5 (lymphatic leukemia P388; 3 mg/kg/day ip): 6/6
- Survivors Day 22 (lymphatic leukemia P388; 3 mg/kg/day ip): 0/6
- antitumor activity against leukemia P388 (in words) (lymphatic leukemia P388): similarly active
- antitumor activity against leukemia P388 (in words) [3]: similarly active
